# Where two headings read alike, the source gives them in different places.
# Key:
# [1] = system: acutely dissociated and purified rat OPCs; test: Acute OL differentiation assay (MBP expression/cell, immunofluorescent image quantification); format: cell-based; settings: sheet "All OLga data"; for activation at 0.08 µM / activation at 0.4 µM / activation at 2 µM / activation at 10 µM: Rattus norvegicus
# How it was run: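 Oligodendrocyte precursor cells were enriched from P6-P7 Sprague–Dawley rat brains by immunopanning (RAN-2 and GalC depletion, O4 selection), plated at 5000 cells/well in serum-free, mitogen-free differentiation media on PDL/laminin 96-well view plates, centrifuged at 200×g, and pre-incubated 1–2 h before test compounds were added in quadruplicate. On DIV4, cells were fixed, stained for MBP and DAPI, imaged automatically, and MBP expression per cell was quantified.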
# expanded OPCs = test: cells; settings: for viability at 0.1 µM / viability at 1 µM / viability at 10 µM: Rattus norvegicus, 72 h
# How it was run: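 Expanded OPCs seeded at 10,000 cells/well in differentiation media, then exposed to NCC library compounds at 10, 1 and 0.1 µM (quadruplicate, 0.1% DMSO) for three days. Viability read as alamarBlue fluorescence (560/590 nm) after 4 h at 37 °C; tunicamycin 5 ng/ml served as toxicity control.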
# [2] = 0.08 uM test compound, relative to quetiapine, read-out: OL differentiation, 0.08 uM (% Quet)
# [3] = 0.4 uM test compound, relative to quetiapine, read-out: OL differentiation, 0.4 uM (% Quet)
# [4] = read-out: 0.1 µM (% DMSO), alamarBlue viability of expanded OPCs, compound at 0.1 µM, sheet All Tox data
# [5] = read-out: 1 µM (% DMSO), alamarBlue viability of expanded OPCs, compound at 1 µM, sheet All Tox data
# [6] = read-out: 10 µM (% DMSO), alamarBlue viability of expanded OPCs, compound at 10 µM, sheet All Tox data
# [7] = 2 uM test compound, relative to quetiapine, read-out: OL differentiation, 2 uM (% Quet)
# [8] = 10 uM test compound, relative to quetiapine, read-out: OL differentiation, 10 uM (% Quet)
# [9] = test compound at 2 uM, NCC library screen, relative to quetiapine, read-out: 2 uM (% Quet)
# [10] = test compound at 10 uM, NCC library screen, relative to quetiapine, read-out: 10 uM (% Quet)
# [11] = read-out: 0.1 µM (% DMSO), alamarBlue viability, NCC library compound at 0.1 µM, sheet "All Tox data"
# [12] = read-out: 1 µM (% DMSO), alamarBlue viability, NCC library compound at 1 µM, sheet "All Tox data"
# [13] = read-out: 10 µM (% DMSO), alamarBlue viability, NCC library compound at 10 µM, sheet "All Tox data"
# [14] = alamarBlue viability of expanded OPCs, compound at 0.1 µM, relative to DMSO control
# [15] = alamarBlue viability of expanded OPCs, compound at 1 µM, relative to DMSO control
# [16] = alamarBlue viability of expanded OPCs, compound at 10 µM, relative to DMSO control
# [17] = test compound at 2 uM, MBP expression relative to quetiapine, NCC library screen, read-out: 2 uM (% Quet)
# [18] = test compound at 10 uM, MBP expression relative to quetiapine, NCC library screen, read-out: 10 uM (% Quet)
SMILES,viability at 0.1 µM (expanded OPCs; [4]) [%],viability at 1 µM (expanded OPCs; [5]) [%],viability at 10 µM (expanded OPCs; [6]) [%],"activation at 2 µM [1, 7] [%]","activation at 10 µM [1, 8] [%]","activation at 2 µM [1, 9] [%]",viability at 0.1 µM (expanded OPCs; [11]) [%],viability at 1 µM (expanded OPCs; [12]) [%],viability at 10 µM (expanded OPCs; [13]) [%],further results
CC(C)[C@]12O[C@H]1[C@@H]1O[C@]13[C@]1(O[C@H]1C[C@H]1C4=C(CC[C@@]13C)C(=O)OC4)[C@@H]2O [Triptolide],73.9,13.2,13.7,–,–,–,–,–,–,"activation at 0.08 µM [1, 2]: 3.9%; activation at 0.4 µM [1, 3]: -23.3%"
CN1[C@@H]2CC[C@H]1C[C@@H](OC(=O)c1c[nH]c3ccccc13)C2 [Tropisetron],98.4,90.9,82.5,37.9,16.9,–,–,–,–,–
COc1cc(C(=O)NC2CCCNC2)cc(OC)c1OC (stereo not shown) [Troxipide],102,115,109,18,-6.8,–,–,–,–,–
c1ccc2c3c([nH]c2c1)CNCC3 [Tryptoline],–,–,–,–,–,-12.9,103,92.4,62.6,"activation at 10 µM [1, 10]: -20.7%"
c1ccc2c(c1)CCCC2C1=NCCN1 (stereo not shown) [Tyzine],–,–,–,–,–,-6,–,–,–,"activation at 10 µM [1, 10]: 0.3%; 0.1 µM (% DMSO) (expanded OPCs; [14]): 181.2 % DMSO; 1 µM (% DMSO) (expanded OPCs; [15]): 186.3 % DMSO; 10 µM (% DMSO) (expanded OPCs; [16]): 187.5 % DMSO"
CC(C)C[C@H](NC(=O)[C@@H](O)[C@H](N)Cc1ccccc1)C(=O)O [Ubenimex],–,–,–,–,–,-3.1,112,112,123,"activation at 10 µM [1, 10]: 9.5%"
COc1ccccc1N1CCN(CCCNc2cc(=O)n(C)c(=O)n2C)CC1 [Urapidil],84.5,89.8,96.2,24.2,8.4,–,–,–,–,–
CC(C)[C@H](N)C(=O)OCCOCn1cnc2c(=O)[nH]c(N)nc21 [Valaciclovir],91.4,98,102,-1.4,-8.7,–,–,–,–,–
Cc1onc(-c2ccccc2)c1-c1ccc(S(N)(=O)=O)cc1 [Valdecoxib],109,104,105,8.7,-33.1,–,–,–,–,–
CCCC(CCC)C(=O)O [Valproic Acid],–,–,–,–,–,-5.2,97.5,93.1,104,"activation at 10 µM [1, 10]: -29.7%"
CCCCC(=O)N(Cc1ccc(-c2ccccc2-c2nnn[nH]2)cc1)[C@H](C(=O)O)C(C)C [Valsartan],–,–,–,10.7,-1,–,86.6,84,82.9,–
CC(=O)O[C@H]1C[C@@H]2CC[C@@H]3[C@H](CC[C@@]4(C)[C@H]3C[C@H]([N+]3(C)CCCCC3)[C@@H]4OC(C)=O)[C@@]2(C)C[C@@H]1N1CCCCC1 [Vecuronium Bromide],–,–,–,–,–,13.2,86.3,87.7,78.4,"activation at 10 µM [1, 10]: 17.7%"
COc1ccc(C(CN(C)C)C2(O)CCCCC2)cc1 (stereo not shown) [Venlafaxine],89.1,85.2,76.7,4,-26,–,–,–,–,–
Nc1ncnc2c1ncn2[C@@H]1O[C@H](CO)[C@@H](O)[C@@H]1O [Vidarabine],–,–,–,–,–,-12.9,90.6,84.9,48.9,"activation at 0.4 µM ([1]; test compound at 0.4 uM, NCC library screen, relative to quetiapine, read-out: 0.4 uM (% Quet)): -2.3%"
CC[C@]1(O)C[C@@H]2CN(CCc3c([nH]c4ccccc34)[C@@](C(=O)OC)(c3cc4c(cc3OC)N(C)[C@H]3[C@@](O)(C(N)=O)[C@H](O)[C@]5(CC)C=CCN6CC[C@]43[C@@H]65)C2)C1 [Vindesine],–,–,–,–,–,–,–,11.4,9.2,"activation at 0.08 µM ([1]; test compound at 0.08 uM, NCC library screen, relative to quetiapine, read-out: 0.08 uM (% Quet)): -193%"
CCC1=C[C@@H]2CN(C1)Cc1c([nH]c3ccccc13)[C@@](C(=O)OC)(c1cc3c(cc1OC)N(C)[C@H]1[C@@](O)(C(=O)OC)[C@H](OC(C)=O)[C@]4(CC)C=CCN5CC[C@]31[C@@H]54)C2 [Vinorelbine],–,–,–,–,–,–,56.8,34.4,11.1,"activation at 0.08 µM [1, 2]: -20.7%; activation at 0.4 µM [1, 3]: -107%"
Cl.Cl.O=C(O)COCCN1CCN(C(c2ccccc2)c2ccc(Cl)cc2)CC1 (stereo not shown) [Virlix],–,–,–,–,–,–,–,–,–,"2 uM (% Quet) ([1]; test compound at 2 uM, MBP expression relative to quetiapine, NCC library screen): 3.4 % Quet; 10 uM (% Quet) ([1]; test compound at 10 uM, MBP expression relative to quetiapine, NCC library screen): -0.36 % Quet; 0.1 µM (% DMSO) (expanded OPCs): 98.3 % DMSO; 1 µM (% DMSO) (expanded OPCs): 92.7 % DMSO; 10 µM (% DMSO) (expanded OPCs): 81.0 % DMSO"
C[C@@H](c1ncncc1F)[C@](O)(Cn1cncn1)c1ccc(F)cc1F [Voriconazole],99.1,97.4,96,4.8,10,–,–,–,–,–
CC(=O)CC(c1ccccc1)c1c(O)c2ccccc2oc1=O (stereo not shown) [Warfarin],–,–,–,–,–,-4.3,–,–,–,"activation at 10 µM [1, 10]: -2%; 0.1 µM (% DMSO) (expanded OPCs; [14]): 92.9 % DMSO; 1 µM (% DMSO) (expanded OPCs; [15]): 93.8 % DMSO; 10 µM (% DMSO) (expanded OPCs; [16]): 96.2 % DMSO"
COc1cc(N)c(Cl)cc1C(=O)NC1CN2CCC1CC2 (stereo not shown) [Zacopride],87,88.6,91.9,6.8,13,–,–,–,–,–
COc1cc(C(=O)NS(=O)(=O)c2ccccc2C)ccc1Cc1cn(C)c2ccc(NC(=O)OC3CCCC3)cc12 [Zafirlukast],–,–,–,-96.7,–,–,94.9,78.7,41.9,"activation at 0.4 µM [1, 3]: -24.7%"
Nc1ccn([C@H]2CC[C@@H](CO)O2)c(=O)n1 [Zalcitabine],–,–,–,-5.5,-96.7,–,95.4,86.4,79.3,–
CCN(C(C)=O)c1cccc(-c2ccnc3c(C#N)cnn23)c1 [Zaleplon],–,–,–,–,–,12.3,87.8,86.8,86.1,"activation at 10 µM [1, 10]: -15.8%"
COc1cc(-c2ccc(=O)[nH]n2)ccc1OC(F)F [Zardaverine],86.5,93.5,67.4,4.1,-36.7,–,–,–,–,–
C[C@H]1CCC[C@H](O)CCCCCc2cc(O)cc(O)c2C(=O)O1 [Zeranol],83.6,85.8,69.3,-37.2,-51.9,–,–,–,–,–
Cc1cn([C@H]2C[C@H](N=[N+]=[N-])[C@@H](CO)O2)c(=O)[nH]c1=O [Zidovudine],–,–,–,–,–,–,–,–,–,"activation at 2 µM [1, 17]: -29.4%; activation at 10 µM [1, 18]: -41.2%; 0.1 µM (% DMSO) (expanded OPCs; [14]): 89.6 % DMSO; 1 µM (% DMSO) (expanded OPCs; [15]): 85.7 % DMSO; 10 µM (% DMSO) (expanded OPCs; [16]): 83.9 % DMSO"
CC(c1cc2ccccc2s1)N(O)C(N)=O (stereo not shown) [Zileuton],104,89.4,77.4,-2.6,-52.1,–,–,–,–,–
CN(C)CCc1c[nH]c2ccc(C[C@H]3COC(=O)N3)cc12 [Zolmitriptan],–,–,–,–,–,4.1,85.9,89.9,95.5,"activation at 10 µM [1, 10]: 4.7%"
Cc1ccc(-c2nc3ccc(C)cn3c2CC(=O)N(C)C)cc1 [Zolpidem],86.9,90.8,93.5,-14,-2.7,–,–,–,–,–
NS(=O)(=O)Cc1noc2ccccc12 [Zonisamide],–,–,–,–,–,–,–,–,–,"activation at 2 µM [1, 17]: 5.9%; activation at 10 µM [1, 18]: 4.3%; 0.1 µM (% DMSO) (expanded OPCs; [14]): 89.3 % DMSO; 1 µM (% DMSO) (expanded OPCs; [15]): 92.8 % DMSO; 10 µM (% DMSO) (expanded OPCs; [16]): 87.8 % DMSO"
